Results from PubChem BioAssay (NCI).
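Step 1: Grow cells in 96-well plates. Step 2: Expose to compound for 48 hours at 5 concentrations. Step 3: Interpolate endpoints linearly; if unreached, use highest concentration. GI50 marks 50% less growth. TGI denotes the concentration required for complete inhibition of growth.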

Experiments:
Test in all cases: NCI tumour cell line growth inhibition, 48 h
[1] = test system: 786-0 renal
[2] = test system: A549 NSCLC
[3] = test system: COLO 205 colon
[4] = test system: IGROV1 ovarian
[5] = test system: KM12 colon
[6] = test system: MCF7 breast
[7] = test system: OVCAR-4 ovarian
[8] = test system: SK-MEL-5 melanoma
[9] = test system: SW-620 colon
[10] = test system: HL-60(TB) leukemia

Row | SMILES | GI50 [1] [µM] | TGI [1] [µM] | GI50 [2] [µM] | TGI [2] [µM] | GI50 [3] [µM] | TGI [3] [µM] | GI50 [4] [µM] | TGI [4] [µM] | GI50 [5] [µM] | TGI [5] [µM] | GI50 [6] [µM] | TGI [6] [µM] | GI50 [7] [µM] | TGI [7] [µM] | GI50 [8] [µM] | TGI [8] [µM] | GI50 [9] [µM] | TGI [9] [µM] | TGI [10] [µM] | GI50 [10] [µM]
1 | COc1cc2c3c(n(CCCN(C)C)c(=O)c2cc1OC)-c1ccccc1C3=O | 16 | 73.9 | 10.3 | > 54.6 | 1.04 | > 100 | 1.61 | > 51.7 | 5.61 | 41.9 | 2.34 | > 53.4 | 6.68 | 53.5 | 10.1 | 47 | 2.11 | 66 | – | –
2 | COC(=O)CCC(=O)CC1CC(=O)C2CCCN12 (stereo not given) | – | > 100 | – | > 100 | – | > 100 | – | > 100 | – | > 100 | – | – | – | > 100 | – | > 100 | – | > 100 | > 100 | –
3 | O=c1[nH]c2cc(Cl)ccc2nc1/C(=N\O)C(O)c1ccc(Cl)cc1Cl (stereo not given) | – | > 100 | – | > 100 | – | > 100 | – | > 100 | – | > 100 | – | – | – | > 100 | – | > 100 | – | > 100 | > 100 | –
4 | COc1cccc(-n2c3nc(=O)n(C)c(=O)c-3nc3ccccc32)c1 | – | > 100 | – | 52.2 | – | 13.1 | – | 59.6 | – | > 100 | – | – | – | 25.2 | – | 13.8 | – | 51.6 | 28.2 | –
5 | Cc1cc(N/N=C/c2nc(-c3ccc(Br)cc3)oc2C)c2cc(Br)ccc2n1 | 1.7 | 3.42 | 2.2 | 5.2 | 4.38 | 22.1 | 4.55 | 20.2 | 2.25 | 5.71 | 1.68 | 3.74 | – | – | 13.4 | 26.1 | 2.04 | 4.81 | 6.28 | 2.24
6 | O=C(COc1ccc(/C=C2\CSc3ccccc3C2=O)cc1)Nc1nccs1 | 14 | 27 | 15.3 | 28.5 | 14.1 | 27.1 | 1.38 | 2.67 | 2.96 | 8.99 | 3.43 | 10.6 | 18.9 | 72.3 | 11.5 | 23.6 | 2.7 | 7.12 | – | –
7 | O=C(Nc1cc(Cl)ccc1Cl)C(=O)C(c1cnc2ccccc2n1)[N+](=O)[O-] (stereo not given) | – | > 100 | – | > 100 | – | > 100 | – | > 100 | – | > 100 | – | – | – | > 100 | – | > 100 | – | > 100 | > 100 | –
8 | O=C1[C@H]2ON(c3ccccc3)C(c3ccc(Cl)cc3)[C@H]2C(=O)N1c1ccc(Cc2ccc(N3C(=O)[C@@H]4ON(c5ccccc5)C(c5ccc(Cl)cc5)[C@@H]4C3=O)cc2)cc1 (stereo not given in full) | – | > 100 | – | > 100 | – | > 100 | – | > 100 | – | > 100 | – | – | – | > 100 | – | > 100 | – | > 100 | > 100 | –
9 | COC(=O)/C(C#N)=C1\CCC(O)N1 (stereo not given) | – | > 100 | – | > 100 | – | > 100 | – | > 100 | – | > 100 | – | – | – | > 100 | – | – | – | > 100 | > 100 | –
10 | CN[C@@H](C)[C@H](NC)c1ccccc1 | – | > 100 | – | > 100 | – | > 100 | – | > 100 | – | > 100 | – | – | – | – | – | > 100 | – | > 100 | > 100 | –
11 | Cc1cc(C)c(C2[C@H]3C(=O)N(c4ccc(Cc5ccc(N6C(=O)[C@@H]7ON(c8ccccc8)C(c8c(C)cc(C)cc8C)[C@@H]7C6=O)cc5)cc4)C(=O)[C@H]3ON2c2ccccc2)c(C)c1 (stereo not given in full) | – | > 100 | – | > 100 | – | > 100 | – | > 100 | – | > 100 | – | – | – | > 100 | – | > 100 | – | > 100 | > 100 | –
12 | CN(C)C(=S)/N=c1\ss/c(=N\C(=S)N(C)C)n1-c1ccc(Cl)c(Cl)c1 | – | > 100 | – | > 100 | – | > 100 | – | > 100 | – | > 100 | – | – | – | > 100 | – | > 100 | – | > 100 | > 100 | –
13 | O=C1CC2C(=O)N(Cc3ccccc3)C1C=C2S(=O)(=O)c1ccccc1 (stereo not given) | – | > 100 | – | > 100 | – | > 100 | – | > 100 | – | > 100 | – | – | – | > 100 | – | > 100 | – | > 100 | > 100 | –
14 | Cc1ccc(S(=O)(=O)NCCNc2nccc(-c3c(-c4ccc(F)cc4)nc4sccn34)n2)cc1 | 5.65 | 26.8 | 3.44 | > 100 | – | – | 3.09 | > 100 | – | – | 1.48 | > 100 | 4.98 | 46.7 | 3.52 | > 100 | – | – | – | –
15 | CC(=O)c1sc(-c2nc(C)c(C(=O)/C=C\c3ccc(/C=C\C(=O)c4sc(-c5nc(C)c(C(C)=O)s5)nc4C)cc3)s2)nc1C | – | > 100 | – | > 100 | – | > 100 | – | > 100 | – | > 100 | – | – | – | > 100 | – | – | – | > 100 | > 100 | –
16 | CC(C)(C=O)CC(C#N)/C(=N\NC(N)=O)C(=O)Nc1ccccc1C(N)=O (stereo not given) | – | > 100 | – | > 100 | – | – | – | > 100 | – | > 100 | – | – | – | > 100 | – | > 100 | – | > 100 | > 100 | –
17 | C=CCNC(=O)N(CCC)CCCCC(NC(C)=O)C(=O)NCc1ccccc1 (stereo not given) | – | > 100 | – | > 100 | – | > 100 | – | > 100 | – | > 100 | – | – | – | > 100 | – | > 100 | – | > 100 | > 100 | –
18 | Cc1ccc(C2(O)CC(c3ccc([N+](=O)[O-])o3)=NN2C(=O)COc2ccc(Cl)cc2)cc1 (stereo not given) | – | 18 | – | 56.4 | – | 15.3 | – | > 76.4 | – | 31.4 | – | – | – | 77.9 | – | 6.6 | – | 10.6 | – | –
19 | CC1=NN(C(=O)CC(=O)N(C(=O)c2ccccc2Cl)c2ccc(C)cc2)C(=O)C1N=Nc1ccc([N+](=O)[O-])cc1 (stereo not given) | – | > 68.5 | – | > 67.7 | – | > 58 | – | > 100 | – | > 100 | – | – | – | > 100 | – | > 100 | – | > 53.6 | > 68.8 | –
20 | Nc1nc(CCl)nc(Nc2ccccc2)n1 | – | 4.35 | – | 79.4 | – | 43.4 | – | 36.1 | – | 30.1 | – | – | – | 32.1 | – | 36.5 | – | 46.3 | 11.2 | –
